Data: ChEMBL document CHEMBL4387721, “Proteolysis targeting chimeras (PROTACs) in 'beyond rule-of-five' chemical space: Recent progress and future challenges” (Bioorg Med Chem Lett, 2019)
Each block holds one compound with its values, some of them ahead of it.

Columns and labels:
[1] = biological target: T1, von Hippel-Lindau disease tumor suppressor/Receptor-type tyrosine-protein kinase FLT3 (Homo sapiens, UniProt P36888+P40337); assay: Protac activity at VHL/FLT3 in human MOLM14 cells assessed as induction of FLT3 protein degradation measured after 4 hrs by immunoblot analysis; type: cell-based
Target sequence in this assay (P36888 whole entry): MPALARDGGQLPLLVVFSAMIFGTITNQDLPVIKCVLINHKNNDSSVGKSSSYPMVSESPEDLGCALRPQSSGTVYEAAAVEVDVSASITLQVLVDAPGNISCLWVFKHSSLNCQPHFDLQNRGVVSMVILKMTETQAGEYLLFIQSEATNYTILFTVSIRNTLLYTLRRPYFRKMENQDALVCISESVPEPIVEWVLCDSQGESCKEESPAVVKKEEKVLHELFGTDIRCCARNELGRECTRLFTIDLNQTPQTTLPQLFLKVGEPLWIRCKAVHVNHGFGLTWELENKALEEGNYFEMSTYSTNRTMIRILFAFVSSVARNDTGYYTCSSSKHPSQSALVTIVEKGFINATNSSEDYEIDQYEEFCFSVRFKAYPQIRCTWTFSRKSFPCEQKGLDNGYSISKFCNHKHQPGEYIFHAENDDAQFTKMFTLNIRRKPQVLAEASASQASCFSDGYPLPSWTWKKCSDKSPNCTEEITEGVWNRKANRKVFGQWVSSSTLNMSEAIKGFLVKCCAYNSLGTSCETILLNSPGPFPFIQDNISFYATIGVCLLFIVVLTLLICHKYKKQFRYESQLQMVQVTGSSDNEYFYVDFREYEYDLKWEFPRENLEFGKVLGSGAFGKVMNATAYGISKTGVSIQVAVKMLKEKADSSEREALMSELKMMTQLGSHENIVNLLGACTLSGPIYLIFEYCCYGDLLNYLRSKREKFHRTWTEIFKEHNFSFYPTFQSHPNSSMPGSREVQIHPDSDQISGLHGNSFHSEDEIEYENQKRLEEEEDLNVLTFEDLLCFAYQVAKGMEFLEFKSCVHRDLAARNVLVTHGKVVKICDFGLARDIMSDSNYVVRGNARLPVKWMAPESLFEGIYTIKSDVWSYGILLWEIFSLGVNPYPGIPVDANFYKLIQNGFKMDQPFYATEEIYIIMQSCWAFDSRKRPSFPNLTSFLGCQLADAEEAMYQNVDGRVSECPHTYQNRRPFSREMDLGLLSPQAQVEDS
Target sequence in this assay (P40337 whole entry): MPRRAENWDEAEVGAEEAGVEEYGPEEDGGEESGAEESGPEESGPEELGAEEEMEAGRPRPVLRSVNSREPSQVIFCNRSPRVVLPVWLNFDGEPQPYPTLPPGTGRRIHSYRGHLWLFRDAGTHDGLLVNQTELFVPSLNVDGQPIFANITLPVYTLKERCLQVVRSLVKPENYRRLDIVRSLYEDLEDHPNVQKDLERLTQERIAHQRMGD

[2] = biological target: T1, von Hippel-Lindau disease tumor suppressor/Receptor-type tyrosine-protein kinase FLT3; assay: Protac activity at VHL/FLT3 in human MOLM14 cells assessed as induction of FLT3 protein degradation at 50 nM measured after 4 hrs by immunoblot analysis relative to control; type: cell-based
[3] = biological target: T2, Protein cereblon/Tyrosine-protein kinase BTK (Homo sapiens, UniProt Q06187+Q96SW2, C481S); assay: Protac activity at CRBN/BTK C481S mutant in human MCL cells assessed as induction of BTK C481S mutant degradation; type: cell-based
[4] = test system: Protein cereblon/Tyrosine-protein kinase BTK (Homo sapiens), Q06187+Q96SW2 [C481S]; assay: Protac activity at CRBN/BTK C481S mutant in human MCL cells assessed as induction of BTK C481S mutant degradation at 500 nM relative to control; type: cell-based
[5] = biological target: T2, Protein cereblon/Tyrosine-protein kinase BTK; assay: Protac activity at CRBN/BTK C481S mutant in human MM cells assessed as induction of BTK C481S mutant protein degradation; type: cell-based
[6] = test system: Protein cereblon/Tyrosine-protein kinase BTK (Homo sapiens), Q06187+Q96SW2 [C481S]; assay: Protac activity at CRBN/BTK C481S mutant in human MM cells assessed as induction of BTK C481S mutant protein degradation at 500 nM relative to control; type: cell-based
[7] = biological target: Protein cereblon/Cyclin-dependent kinase 9 (Homo sapiens, UniProt P50750+Q96SW2); assay: Protac activity at CRBN/CDK9 in human HCT116 cells assessed as induction of CDK9 protein degradation after 6 hrs by Western blot analysis; type: cell-based
[8] = biological target: T3, von Hippel-Lindau disease tumor suppressor/Focal adhesion kinase 1 (Homo sapiens, UniProt Q05397+P40337); assay: Protac activity at VHL/FAK in serum deprived human PC3 cells assessed as induction of FAK protein degradation in serum deprived human PC3 cells after 24 hrs by Western blot analysis
[9] = biological target: T3, von Hippel-Lindau disease tumor suppressor/Focal adhesion kinase 1; assay: Protac activity at VHL/FAK in serum deprived human PC3 cells assessed as induction of FAK protein degradation in serum deprived human PC3 cells at 50 nM after 24 hrs by Western blot analysis relative to control
Target sequence in this assay (P40337 whole entry partner): as the sequence (P40337 whole entry) above
Target sequence in this assay (Q05397 2-1052 limits assumed): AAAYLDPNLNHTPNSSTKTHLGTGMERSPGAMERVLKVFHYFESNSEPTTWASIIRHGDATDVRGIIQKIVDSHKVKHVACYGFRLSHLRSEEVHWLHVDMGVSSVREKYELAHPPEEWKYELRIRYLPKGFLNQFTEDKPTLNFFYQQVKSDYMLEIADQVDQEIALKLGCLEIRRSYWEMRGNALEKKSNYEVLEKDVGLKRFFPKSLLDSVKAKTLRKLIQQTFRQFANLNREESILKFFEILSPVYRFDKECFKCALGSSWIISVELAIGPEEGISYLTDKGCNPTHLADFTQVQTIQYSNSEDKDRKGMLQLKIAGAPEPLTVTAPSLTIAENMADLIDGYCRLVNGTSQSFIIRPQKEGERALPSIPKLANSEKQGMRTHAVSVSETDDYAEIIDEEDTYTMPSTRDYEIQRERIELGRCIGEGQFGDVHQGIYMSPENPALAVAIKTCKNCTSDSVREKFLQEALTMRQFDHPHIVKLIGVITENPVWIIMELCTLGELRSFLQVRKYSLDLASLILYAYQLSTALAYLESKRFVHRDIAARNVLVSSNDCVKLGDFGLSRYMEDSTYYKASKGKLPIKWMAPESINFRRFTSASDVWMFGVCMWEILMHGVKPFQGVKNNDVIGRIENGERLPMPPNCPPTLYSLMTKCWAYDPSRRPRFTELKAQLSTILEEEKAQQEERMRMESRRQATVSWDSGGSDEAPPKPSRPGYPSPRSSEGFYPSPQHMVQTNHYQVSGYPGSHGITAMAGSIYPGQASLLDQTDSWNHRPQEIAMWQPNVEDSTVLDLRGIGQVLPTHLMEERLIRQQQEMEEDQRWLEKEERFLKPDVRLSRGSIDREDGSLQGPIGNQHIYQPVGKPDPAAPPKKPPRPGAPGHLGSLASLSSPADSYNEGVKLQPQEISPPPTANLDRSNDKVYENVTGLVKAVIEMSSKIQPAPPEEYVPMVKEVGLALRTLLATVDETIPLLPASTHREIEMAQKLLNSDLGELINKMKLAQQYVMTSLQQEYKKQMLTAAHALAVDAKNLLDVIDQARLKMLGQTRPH

[10] = biological target: T4, BRD4/E3 ubiquitin-protein ligase Mdm2 (Homo sapiens, UniProt Q00987+O60885); assay: Protac activity at BRD4/MDM2 in human HCT116 cells assessed as induction of BRD4 degradation at 100 nM after 24 hrs by immunoblotting analysis relative to control; type: cell-based
[11] = biological target: T4, BRD4/E3 ubiquitin-protein ligase Mdm2; assay: Protac activity at BRD4/MDM2 in human HCT116 cells assessed as induction of BRD4 degradation at after 24 hrs by immunoblotting analysis; type: cell-based
[12] = biological target: Protein cereblon/Tyrosine-protein kinase BTK (Homo sapiens, UniProt Q06187+Q96SW2); assay: Protac activity at CRBN/BTK in human NAMALWA cells assessed as induction of BTK protein degradation at 100 nM incubated for 24 hrs by immunoblotting method relative to control; type: cell-based
[13] = biological target: T5, E3 ubiquitin-protein ligase XIAP/Tyrosine-protein kinase ABL1/Breakpoint cluster region protein (Homo sapiens, UniProt P00519+P98170+P11274); assay: Protac activity at BCR-ABL/XIAP in human K562 cells assessed as induction of ABL protein degradation at 100 nM after 6 hrs by Western blot analysis relative to control; type: cell-based
[14] = biological target: T5, E3 ubiquitin-protein ligase XIAP/Tyrosine-protein kinase ABL1/Breakpoint cluster region protein; assay: Protac activity at BCR-ABL/XIAP in human K562 cells assessed as induction of ABL protein degradation after 6 hrs by Western blot analysis; type: cell-based
[15] = biological target: von Hippel-Lindau disease tumor suppressor/Receptor-interacting serine/threonine-protein kinase 2 (Homo sapiens) (UniProt O43353+P40337); assay: Protac activity at VHL/RIPK2 in human THP1 cells assessed as induction of RIPK2 protein degradation at 10 nM incubated for 16 hrs by Western blot analysis relative to control; type: cell-based
[16] = biological target: T6, Protein cereblon/B-cell lymphoma 6 protein (Homo sapiens, UniProt Q96SW2+P41182); assay: Protac activity at CRBN/BCL6 in human SUDHL4 cells assessed as induction of BCL6 protein degradation after 4 hrs by Western blot analysis; type: cell-based
[17] = biological target: T6, Protein cereblon/B-cell lymphoma 6 protein; assay: Protac activity at CRBN/BCL6 in human SUDHL4 cells assessed as induction of BCL6 protein degradation at 1 uM after 4 hrs by Western blot analysis relative to control; type: cell-based
[18] = biological target: T7, von Hippel-Lindau disease tumor suppressor/Bromodomain-containing protein 4 (Homo sapiens, UniProt O60885+P40337); assay: Protac activity at VHL/BRD4 short isoform in human HeLa cells assessed as induction of BRD4 short isoform degradation incubated for 24 hrs by Western blot analysis; type: cell-based
[19] = biological target: T7, von Hippel-Lindau disease tumor suppressor/Bromodomain-containing protein 4; assay: Protac activity at VHL/BRD4 short isoform in human HeLa cells assessed as induction of BRD4 short isoform degradation incubated for 24 hrs by Western blot analysis relative to control; type: cell-based

T4 sequence (Q00987 whole entry, looked up, other chains not shown): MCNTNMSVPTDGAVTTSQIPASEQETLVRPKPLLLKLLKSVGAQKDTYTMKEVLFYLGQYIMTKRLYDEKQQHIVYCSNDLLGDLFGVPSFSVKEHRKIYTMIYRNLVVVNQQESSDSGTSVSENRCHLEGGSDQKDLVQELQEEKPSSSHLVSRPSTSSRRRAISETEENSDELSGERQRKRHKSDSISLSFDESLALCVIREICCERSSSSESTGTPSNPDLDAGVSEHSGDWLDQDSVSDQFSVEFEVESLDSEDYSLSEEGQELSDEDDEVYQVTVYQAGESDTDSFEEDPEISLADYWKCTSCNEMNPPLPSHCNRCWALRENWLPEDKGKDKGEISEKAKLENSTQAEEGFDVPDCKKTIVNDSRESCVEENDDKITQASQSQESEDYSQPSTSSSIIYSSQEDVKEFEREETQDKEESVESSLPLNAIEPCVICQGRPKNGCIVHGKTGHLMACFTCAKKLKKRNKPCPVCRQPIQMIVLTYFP
T7 sequence (P40337 whole entry, looked up, other chains not shown, canonical isoform): as the sequence (P40337 whole entry) above
T6 sequence (Q96SW2 whole entry, looked up, other chains not shown): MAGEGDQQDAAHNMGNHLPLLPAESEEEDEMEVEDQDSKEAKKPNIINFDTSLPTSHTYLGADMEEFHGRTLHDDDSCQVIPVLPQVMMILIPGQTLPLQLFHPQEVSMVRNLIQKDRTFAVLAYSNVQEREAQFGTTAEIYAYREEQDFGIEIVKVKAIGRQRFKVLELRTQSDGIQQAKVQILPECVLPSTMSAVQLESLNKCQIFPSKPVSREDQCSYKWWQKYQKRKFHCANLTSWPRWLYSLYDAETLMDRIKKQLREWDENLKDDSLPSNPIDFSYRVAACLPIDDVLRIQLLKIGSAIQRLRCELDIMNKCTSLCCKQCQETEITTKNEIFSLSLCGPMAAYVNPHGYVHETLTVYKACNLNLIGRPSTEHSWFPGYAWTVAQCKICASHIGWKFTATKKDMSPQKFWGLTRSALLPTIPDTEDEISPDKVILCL
T2 sequence (Q06187 2-659 C481S limits assumed, stated change not applied): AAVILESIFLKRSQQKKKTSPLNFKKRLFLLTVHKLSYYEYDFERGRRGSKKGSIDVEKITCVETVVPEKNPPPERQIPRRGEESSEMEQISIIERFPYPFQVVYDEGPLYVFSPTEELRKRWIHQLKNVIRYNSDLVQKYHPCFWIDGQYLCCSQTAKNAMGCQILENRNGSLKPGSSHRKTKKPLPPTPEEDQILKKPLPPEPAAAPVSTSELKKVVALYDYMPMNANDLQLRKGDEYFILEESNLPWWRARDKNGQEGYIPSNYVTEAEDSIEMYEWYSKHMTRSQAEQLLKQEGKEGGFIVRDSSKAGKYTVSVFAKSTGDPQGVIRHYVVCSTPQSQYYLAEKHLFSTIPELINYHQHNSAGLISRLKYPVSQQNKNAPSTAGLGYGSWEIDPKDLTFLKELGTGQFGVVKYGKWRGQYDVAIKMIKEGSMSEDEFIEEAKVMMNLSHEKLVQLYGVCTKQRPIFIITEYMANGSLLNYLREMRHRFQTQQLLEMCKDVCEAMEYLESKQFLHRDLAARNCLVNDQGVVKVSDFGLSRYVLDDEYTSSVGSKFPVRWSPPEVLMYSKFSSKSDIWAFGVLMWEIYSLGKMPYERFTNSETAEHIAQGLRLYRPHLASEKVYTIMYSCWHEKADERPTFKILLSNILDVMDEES
T2 sequence (Q96SW2 whole entry, stated change not applied): as the sequence (Q96SW2 whole entry, looked up, other chains not shown) above
Sequence of Protein cereblon/Tyrosine-protein kinase BTK (Homo sapiens, UniProt Q06187+Q96SW2) (Q06187 2-659 limits assumed): as the sequence (Q06187 2-659 C481S limits assumed, stated change not applied) above, with S480C counted along it
Sequence of Protein cereblon/Tyrosine-protein kinase BTK (Homo sapiens, UniProt Q06187+Q96SW2) (Q96SW2 whole entry partner): as the sequence (Q96SW2 whole entry, looked up, other chains not shown) above
Sequence of Protein cereblon/Cyclin-dependent kinase 9 (P50750 whole entry): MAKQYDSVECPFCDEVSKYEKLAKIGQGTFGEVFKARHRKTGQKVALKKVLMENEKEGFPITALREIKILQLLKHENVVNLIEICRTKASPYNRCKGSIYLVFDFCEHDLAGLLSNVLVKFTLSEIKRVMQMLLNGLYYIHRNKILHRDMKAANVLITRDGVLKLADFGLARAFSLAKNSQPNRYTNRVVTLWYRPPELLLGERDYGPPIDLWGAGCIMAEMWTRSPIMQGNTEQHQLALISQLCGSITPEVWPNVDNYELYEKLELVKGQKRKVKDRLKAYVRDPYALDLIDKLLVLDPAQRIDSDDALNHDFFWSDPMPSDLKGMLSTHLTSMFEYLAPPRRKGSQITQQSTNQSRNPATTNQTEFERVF
Sequence of Protein cereblon/Cyclin-dependent kinase 9 (Q96SW2 whole entry): as the sequence (Q96SW2 whole entry, looked up, other chains not shown) above

DC50 [1]: < 5 nM | Emax [2]: > 90%
SMILES: Cc1ncsc1-c1ccc(CNC(=O)[C@@H]2C[C@@H](O)CN2C(=O)[C@@H](NC(=O)CCOCCOCCOc2ccc3c(c2)sc2nc(-c4ccc(NC(=O)Nc5cc(C(C)(C)C)on5)cc4)cn23)C(C)(C)C)cc1

SMILES: Nc1ncnc2c1c(-c1ccc(Oc3ccccc3)cc1)nn2[C@@H]1CCCN(C(=O)c2cn(CCOCCOCCOCCNc3cccc4c3C(=O)N(C3CCC(=O)NC3=O)C4=O)nn2)C1 (some centres undefined)
DC50 [3]: > 6 nM | Emax [4]: > 94% | DC50 [5]: < 12 nM | Emax [6]: > 94%

DC50 [7]: 10000 nM
SMILES: O=C1CCC(N2C(=O)c3cccc(OCCCCCOc4ccc(CC(=O)Nc5cc(C6CCC6)n[nH]5)cc4)c3C2=O)C(=O)N1 (centres undefined)

DC50 [8]: 3 nM | Emax [9]: > 99%
SMILES: Cc1ncsc1-c1ccc(CNC(=O)[C@@H]2C[C@@H](O)CN2C(=O)[C@@H](NC(=O)CCOCCOc2ccc(Nc3ncc(C(F)(F)F)c(NCc4cccc(N(C)S(C)(=O)=O)c4)n3)cc2)C(C)(C)C)cc1

Emax [10]: 98% | DC50 [11]: 32 nM
SMILES: COc1cc(C(=O)NCCOCCOCCOCCNC(=O)C[C@@H]2N=C(c3ccc(Cl)cc3)c3c(sc(C)c3C)-n3c(C)nnc32)ccc1NC(=O)[C@@H]1N[C@@H](CC(C)(C)C)[C@](C#N)(c2ccc(Cl)cc2F)[C@H]1c1cccc(Cl)c1F

Emax [12]: > 99%
SMILES: Nc1ncnc2c1c(-c1ccc(Oc3ccccc3)cc1)nn2C1CCN(CCOCCOCC(=O)Nc2ccc3c(c2)C(=O)N(C2CCC(=O)NC2=O)C3=O)CC1 (centres undefined)

Emax [13]: > 90% | DC50 [14]: 3 to 10 nM
SMILES: CN[C@@H](C)C(=O)N[C@H](C(=O)N1CCC[C@H]1c1nc(C(=O)c2cccc(OCCOCCOCCOCC(=O)N3CCN(c4cc(Nc5ncc(C(=O)Nc6c(C)cccc6Cl)s5)nc(C)n4)CC3)c2)cs1)C1CCCCC1

Emax [15]: > 95%
SMILES: Cc1ncsc1-c1ccc(CNC(=O)[C@@H]2C[C@@H](O)CN2C(=O)[C@@H](NC(=O)COCCOCCOCCOCCOc2cc3nccc(Nc4ccc5scnc5c4)c3cc2S(=O)(=O)C(C)(C)C)C(C)(C)C)cc1

DC50 [16]: < 1000 nM | Emax [17]: 84%
SMILES: CN1C(=O)CCc2cc3cc(c21)OCCOC[C@H]1CN(C(=O)CCC(=O)NCCCOCCOCCOCCOCCOc2cccc4c2C(=O)N(C2CCC(=O)NC2=O)C4=O)CCN1c1ncc(Cl)c(n1)N3 (some centres undefined)

DC50 [18]: 10 to 100 nM | Emax [19]: > 90%
SMILES: CC(=O)N[C@H](C(=O)N1C[C@H](O)C[C@H]1C(=O)NCc1ccc(-c2scnc2C)cc1)C(C)(C)SCCCCCCNC(=O)C[C@@H]1N=C(c2ccc(Cl)cc2)c2c(sc(C)c2C)-n2c(C)nnc21
